Data on eight compounds can be found in patent publication US5578643A, “Protective prostaglandins for use in conjunction with chemotherapeutic agents” (Loyola University of Chicago, priority 1994, dated 1996).

Data set [1] relates to mice given graded doses of doxorubicin (DOX). Put plainly: DOX dose response: dose killing 50% of the mice within 15 days, alone or after PG or WR-2721. The note with it: for effect on DOX dose necessary to kill 50% of mice: 10 μg of 16,16-dimethyl PGE2 or 25 μg of SC-44932, 2 hours before graded doses of doxorubicin, n=8, FIG. 6. The format is in vivo. The protocol:
The open triangle is data of a group of 10 mice given WR-2721, 30 minutes before administration of 0.75 mg of doxorubicin. (The lines are computer fit spline curves through the data; n=24 per data point on each curve).
(The lines are computer fit spline curves through the data; n=8 per data point for each of the PG-treated groups and n=24 for the data points of mice treated only with doxorubicin).
It was observed that all acute deaths due to DOX treatment alone occurred before day 15 following DOX administration. Subsequently, the parameter of death within 15 days was used to investigate the DOX dose response administered IP alone or 2 hours after 40 μg of misoprostol was given subcutaneously (sc). In this study, a dose of about 0.5 mg of DOX/average 30 gram mouse, killed 50% of the DOX treated mice (see FIG. 5).
A comparison of PG-induced protection was made to that of protection by WR-2721; an agent reported to protect from some chemotherapeutic agents. […] Two other PGs representing different structural prostaglandins than misoprostol were also investigated for their effectiveness in protecting mice from mortality resulting from administration of graded doses of DOX.

The subject of a further data set is humans. As to conditions: WR-2721 in large protective doses; cited from earlier work.
The subject of a further data set is kidney. As to conditions: bolus infusions of cisplatin; Glover et al.; cited from earlier work.
The next data set concerns hair medullary cells. Description: Number of hair medullary cells four days after a single dose of chemotherapeutic agent, with or without misoprostol. The format is in vivo, CF1 mice. As to conditions: 4 days after single IP dose: DOX 0.3, CTX 1, VP-16-213 0.3, ARA-C 8, HU 10, 5 FU 1.0, Methotrexate 0.2, Bleomycin 0.05, Mitomycin C 0.01, Cisplatin 0.25, Carboplatin 1.0, Taxol 0.6 mg; untreated control 51.4 ± 0.6. The protocol: FIG. 13 is a representation of photographs of shafts of hair showing a single line of medullary cells in control mice (Panel A) and in mice 4 days after they were given a single dose of 0.3 mg of VP-16-213 (Panel B).
Number of Hair Medullary Cells as a Measure of Protection from Injury caused by Chemotherapeutic Agents.
The shafts of hair in CF1 mice contain usually a single line of about 50±1 medullary cells. These cells are very sensitive to cytotoxic agents (see Potten, C. S., Geng, L., and Taylor, P., Hair Medullary Cell Counts: a Simple and Sensitive Indicator of Radiation Exposure. Int. J Radiat. Biol., 57:13-21, 1990). Single doses of cytotoxic chemotherapeutic agents greatly reduce the number of medullary cells which reach a nadir at 4 days after administration of the agent. This cell system has been used for the evaluation of misoprostol-induced protection from several chemotherapeutic agents.
CF1 mice had hair from an area of their rump plucked to induce anagen growth as described in Example 2 above. […] In separate groups, mice received misoprostol (40 μg/average 30 g mouse) either subcutaneously or applied topically 2 hours before each of the chemotherapeutic agents listed above. Untreated controls were used since it has been previously determined that water, or 2% EtOH in water, or phosphate buffer at pH=6.8 (the vehicles for the all agents used) had no influence on the cell counts compared to untreated controls. Twenty-five hairs from each animal of each group were dissected from Feulgen stained samples taken from the mice 4 days after treatment.
The number of medullary cells was averaged (n=4) for each treatment group and the results for all chemotherapeutic agents tested to date are presented in Table I.

In the next data set the test system is skin (hair follicles). Description: Hair count after a single dose of doxorubicin, with or without PGE1. The format is in vivo, mice. As to conditions: 10 μg of PGE1 2 hours before 0.5 mg doxorubicin; FIG. 11. The protocol: FIG. 11 is a graph illustrating the number of hairs per 4.16 sq. mm of skin area in control mice, in mice that received 0.5 mg of doxorubicin or in mice that received 10 μg of PGE1 2 hours before receiving 0.5 mg of doxorubicin. (Data are the means of 6 mice (2 field/mouse)±SEM.)
(§1) The hair counts from skin fields of control (open bar), DOX (striped bar) and misoprostol+DOX (filled bar) treated mice are shown in FIG. 9. […] Misoprostol given before DOX increased the hair count to 213±7.8. […] Since prostaglandin receptors are not evenly distributed, protection may not be evenly distributed. PGE1 is associated with the skin (hair follicles) but not with the gut. The ability of PGE1 to protect the skin (hair follicles) and the small intestine from cell injury caused by doxorubicin was tested. […] A single dose of 0.5 mg of doxorubicin reduced this count to 43±8. Administration of 10 μg of PGE1 prior to administration of doxorubicin provided protection as indicated by the increase in the number of hairs to 111±12. […] More evidence is presented in Example 3.

A further data set has as its system small intestine. Put plainly: Intestinal microcolonies in DOX treated mice, with or without PGE1. The format is in vivo. The note with it: 10 μg of PGE1 (b62 prints .rho.g) 2 hours before 0.5 mg doxorubicin; FIG. 12.
Source text: (Data are the means of 4 mice±1 SEM.)
as §1

Consider `NCCCNCCSP(=O)(O)O` [WR-2721, S-2-(3-aminopropylamino) ethylphosphorothioxic acid], for which, in data set [1] (WR-2721 30 minutes before 0.75 mg of doxorubicin, n=10, FIG. 5), the “protection of mice from DOX by WR-2721” value is reported as “did not protect mice (n=10) from DOX treatment”. Further, in the data set with humans, the “side effects in humans” value is “causes hypotension, nausea, and vomiting in humans”. The “kidney protection from cisplatin injury” value with kidney is reported as “protect the kidney from injury caused by bolus infusions of cisplatin”.
As to `C/C=C/C=C/[C@](C)(O)C/C=C/C1C(O)CC(=O)C1CC/C=C\CCC(=O)OC` (mixture of isomers) [SC-44932, (±) methyl, 7-[3α-hydroxy-2β-(4R-hydroxy-4-methyl-1E, 5E,7E-nonatrienyl)-5-oxo-1α-cyclopentyl]-4-Z-heptenoate], the “effect on DOX dose necessary to kill 50% of mice” value in data set [1] is “increased the DOX dose necessary to kill 50% of a population (n=8) of mice”.
`CCCCC(C)(C)[C@H](O)/C=C/[C@H]1[C@H](O)CC(=O)[C@@H]1C/C=C\CCCC(=O)O` [16,16-dimethyl PGE2, 16,16-dimethyl prostaglandin E2]: in data set [1], the “effect on DOX dose necessary to kill 50% of mice” value is “increased the DOX dose necessary to kill 50% of a population (n=8) of mice”.
With bleomycin, the “Number of Medullar Cells ± 1 SEM, chemotherapeutic agent IP alone” value in the data set on hair medullary cells is 30.4 ± 1.4.
As for `CCCCC[C@H](O)/C=C/[C@H]1[C@H](O)CC(=O)[C@@H]1CCCCCCC(=O)O` [PGE1], the “number of hairs, PGE1 + doxorubicin” value in the data set on skin (hair follicles) is reported as 111±12 hairs per 4.16 sq. mm. Also, the “number of intestinal colonies per circumference, PGE1 + DOX” value in the data set with small intestine was “did not change”.
As to `O=P1(N(CCCl)CCCl)NCCCO1` (centres unmarked) [CTX, cytoxan], the “Number of Medullar Cells ± 1 SEM, chemotherapeutic agent IP alone” value in the data set on hair medullary cells turned out to be 22.1 ± 1.9.
The same measure, in the same setting: the same measure for `N.N.O=C([O-])C1(C(=O)[O-])CCC1.[Pt+2]` [Carboplatin, carboplatin]: 37.8 ± 2.4; for `N.N.[Cl][Pt][Cl]` [Cisplatin, cisplatin]: 25.9 ± 1.5.
